Experimental data taken from patent US11912755B2, “Endostatin fragments and variants for use in treating fibrosis” (iBio, Inc., priority 2015, dated 2024).

Tests used:
[1] = system: TGF-β-induced dermal fibrosis in mouse skin; conditions: single dose concurrently with TGF-β; cited from earlier work
[2] = system: TGF-β-induced dermal fibrosis in mouse skin; test: In vivo TGF-β-induced dermal fibrosis in mouse skin; conditions: 10 μg/ml intradermal with TGF-β 10 ng/ml; one week
Procedure: In Vivo Mouse Experiments. CB57BL6/J male mice were purchased from The Jackson Laboratory (Bar Harbor, ME). Human rE (10 μg/ml) or Endostatin peptides (10 μg/ml) in combination with TGF-β (10 ng/ml), or TGF-β alone were injected intradermally on the back of mice in a total volume of 100 μl 1×PBS. Mice were injected in two different skin sites and sacrificed one week post-injection. Skin surrounding the injection site was harvested and fixed in 10% formalin prior to embedding in paraffin.
(§1) Measurement of Skin Dermal Thickness. Six μm sections of paraffin-embedded human and mouse skin tissues were stained with hematoxylin and eosin (H&E). In some experiments, sections were stained with Masson trichrome which identifies collagens. Images were taken on a Nikon Eclipse 800 microscope. The thickness of the dermis was measured in 6 random fields of each section using the image/J® software. Data are shown in arbitrary units.
E4, a peptide representing the carboxy terminus of human endostatin, can attenuate fibrosis triggered by multiple fibrogenic factors. The anti-fibrotic effects of E4 can be detected whether administered concomitantly with or following the fibrogenic trigger. The efficacy of E4 was confirmed in […] pre-clinical models of fibrosis: a) bleomycin-induced dermal fibrosis in vivo in mouse skin, b) TGF-β induced dermal fibrosis in mouse skin, and c) bleomycin-induced pulmonary fibrosis. E4 peptide or a control peptide (E1; representing the amino terminal region of endostatin) were administered at the same time as TGF-β or bleomycin or 3-4 days following TGF-β or bleomycin. Mice were sacrificed one and two weeks after TGF-β-initiation of dermal fibrosis, and two and three weeks after bleomycin-induced pulmonary fibrosis. Two different modes of administration of the E4 peptide were also tested. It was confirmed that intraperitoneal and intratracheal administration was effective. The amount of E4 that was administered was 10 μg/ml in a total volume of 100 μl for skin and IP injections and 50 μl for IT administration.
For these studies, fibrosis was assessed by measurement of dermal thickness on H&E skin sections (skin), assessment of collagen levels by Masson Trichrome staining (skin and lung), and measurement of collagen levels by Sircol assay (lung). Furthermore, to confirm the mechanism by which E4 exerts its anti-fibrotic effects, the production of extra-cellular matrix (ECM) components, the levels of enzymes that promote matrix stabilization and thus accumulation and levels of those that degrade ECM components, and levels of transcription factors downstream of the pro-fibrotic triggers were evaluated. Results were assessed using the unpaired t test and the 3-way ANOVA (for the ID1 data).

[3] = system: human skin explants; test: Ex vivo human skin assay, dermal thickness; type: cell-based
Procedure: Ex vivo human skin assays. Human abdominal skin was obtained from corrective plastic surgery. As previously described (Yasuoka et al., The Open Rheumatol J 2008; 2:17-22), subcutaneous fat tissue was removed uniformly and skin tissue was cut into 1.5 cm×1.5 cm sections. The following were injected intradermally in a total volume of 100 μl 1×PBS: rE alone (1-10 μg/ml), endostatin peptides alone (10 μg/ml), rE or endostatin peptides (1-20 μg/ml) in combination with TGF-β (10 ng/ml), and TGF-β alone (10 ng/ml). In some experiments, human skin was first injected with TGF-β for 48 h followed by recombinant endostatin (rE) administration in the same injection site as TGF-β. Explants containing complete epidermal and dermal layers were cultured in an air liquid interface with the epidermal and keratin layers side up and exposed to air. The culture medium was replaced every other day. After 1 or 2 weeks, skin tissue corresponding to an area with 8-mm diameter centered around the injection site was harvested using disposable 8-mm ACUPUNCH® (Acuderm, Inc., Lauderdale, FL). Skin tissue was fixed in 10% formalin prior to embedding in paraffin.
as §1

[4] = system: diabetes/renal fibrosis model; conditions: rat, in vivo; cited from earlier work
[5] = system: patients with advanced solid tumors; conditions: daily 1-hour intravenous infusion at doses up to 300 mg/m2; cited from earlier work
[6] = system: liver fibrosis model; conditions: mouse, in vivo; cited from earlier work
[7] = system: IPF model; conditions: rat, in vivo; cited from earlier work
[8] = system: human primary lung fibroblasts; conditions: adenovirally-expressed endostatin; fibroblasts pretreated with TGF-β; cited from earlier work
[9] = system: rabbit ear scar model; conditions: in vivo; cited from earlier work

In the case of “E3: synthetic peptide, SEQ ID NO: 20, amino acids 133-180 of human endostatin (SYCETWRTEAPSATGQASSLLGGRLLGQSAASCHHAYIVLCIENSFMT; E3 amino acid sequence)”, the skin thickness [1] is given as “significantly decreased skin”, the “TGF-β-induced dermal fibrosis (dermal thickness)” value [2] is given as “prevented” and the “dermal thickness, baseline effect” value ([3]; injected alone, no TGF-β, rE 1, 5, 10 μg/ml, peptides 10 μg/ml) is given as “tendency towards reduction”. The “development of fibrosis as measured by dermal thickness” value ([3]; peptides 10 μg/ml with 10 ng/ml TGF-β, vs TGF-β alone) was “significantly abolished”.

For Endostatin, the injury parameters [4] is given as “reversed injury parameters”, the tolerability [5] is given as “well tolerated” and the injury parameters [6] is given as “reversed injury parameters”. For the same substance, the injury parameters [7] was “reversed injury parameters”, the “FN and Col1α1 protein levels” value [8] was “endostatin markedly reduced” and the injury parameters [9] was “reversed injury parameters”.
